Experimental data: ChEMBL document CHEMBL1649432, “Chromosomal integration of the extended-spectrum beta-lactamase gene blaCTX-M-15 in Salmonella enterica serotype Concord isolates from internationally adopted children” (2009)
Values after ≈ are worked out from the molar mass of the structure shown.

Experiments:
Assay type in all cases: functional, Salmonella enterica subsp. enterica serovar Concord
[1] = Antimicrobial activity against Salmonella enterica serotype concord expressing extended-spectrum beta-lactamase SHV-12 by disc diffusion method
[2] = Antimicrobial activity against Salmonella enterica serotype concord expressing extended-spectrum beta-lactamase CTX-M-15 by disc diffusion method
[3] = Antimicrobial activity against Salmonella enterica serotype concord expressing extended-spectrum beta-lactamase SHV-12 by Etest
[4] = Antimicrobial activity against Salmonella enterica serotype concord expressing extended-spectrum beta-lactamase CTX-M-15 by Etest

SMILES | MIC [1] [µg/mL] | MIC ([2]; Salmonella enterica) [µg/mL] | MIC [3] [µg/mL] | MIC [4] [µg/mL] | Activity [2] [µg/mL]
CO/N=C(\C(=O)N[C@@H]1C(=O)N2C(C(=O)[O-])=C(C[N+]3(C)CCCC3)CS[C@H]12)c1csc(N)n1 [CEFEPIME] | 8 (≈ 16.6 µM) | > 256 | – | – | –
CC(C)(O/N=C(\C(=O)N[C@@H]1C(=O)N2C(C(=O)[O-])=C(C[n+]3ccccc3)CS[C@H]12)c1csc(N)n1)C(=O)O [CEFTAZIDIME] | – | – | > 256 | > 256 | –
O=C(O)c1cn(C2CC2)c2cc(N3CCNCC3)c(F)cc2c1=O [CIPROFLOXACIN] | – | – | – | – | 0.25
CO/N=C(\C(=O)N[C@@H]1C(=O)N2C(C(=O)O)=C(CSc3nc(=O)c(O)nn3C)CS[C@H]12)c1csc(N)n1 [CEFTRIAXONE] | – | – | 64 (≈ 115 µM) | > 256 | –
